Measurements published in US7256180B2 (priority 2000, dated 2007).
Where two headings read alike, the source gives them in different places. {C11P} = undecylphosphate group; {Acr} = acridine group

How the values were obtained:
HSV-1 virus (strain L2) = type: cell-based, Herpes Simplex Virus 1; settings: Vero cells, 24 hours
HSV-1 = type: cell-based, Herpes Simplex Virus 1; settings: BHK cells, oligonucleotide 3.0 μM
HSV-1 (strain CI) = type: in vivo, mice

Substance: Free Anti-HSV: CGTTCCTCCTGU, 5′ undecylphosphate and 3′ acridine modified (5' {C11P}, 3' {Acr}, sugars by position and backbone not given here)
- HSV-1 Infectious Titre (CPE50/ml) (n = 7) (HSV-1 virus (strain L2); oligo conc. 0.2 μM): 0.9 (±0.4) × 10^5 CPE50/ml
- HSV-1 Infectious Titre (CPE50/ml) (n = 7) (HSV-1 virus (strain L2); oligo conc. 1.0 μM): 2.3 (±0.7) × 10^3 CPE50/ml
- HSV-1 Infectious Titre (CPE50/ml) (n = 7) (HSV-1 virus (strain L2); oligo conc. 5.0 μM): 1.6 (±0.4) × 10^2 CPE50/ml
- HSV-1 Infectious Titre (CPE50/ml) (n = 7) (HSV-1): 50 (±14) × 10^2 CPE50/ml
- Animals Survived/No. of Animals in group, Exp. 1 (HSV-1 (strain CI); mouse, in vivo, iv): 1/10
- Animals Survived/No. of Animals in group, Exp. 2 (HSV-1 (strain CI); mouse, in vivo, iv): 1/10
- Animals Survived/No. of Animals in group, Exp. 3 (HSV-1 (strain CI); mouse, in vivo, iv): 0/10
- % Survival (HSV-1 (strain CI); over Exp. 1-3): 7.0%
